Reference: ChEMBL document CHEMBL5131412, “Synthesis of unnatural morphinan compounds to induce itch-like behaviors in mice: Towards the development of MRGPRX2 selective ligands” (Bioorg Med Chem Lett, 2022)
Calls of active or inactive are those of the source. The rule behind the calls is not given here. Bridge positions count the residues as written; N and C are the ends. Peptide text beside a SMILES is read from it.

Tests used:
[1] = biological target: T1, Mas-related G-protein coupled receptor member X2 (Homo sapiens) (UniProt Q96LB1); assay: Agonist activity at MRGPRX2 (unknown origin) expressed in HEK293 cells assessed as induction of G(o) dissociation by measuring luminescent decay at 32 uM by NanoBiT-G-protein dissociation assay; format: functional, cell-based; settings: filed as agonist
T1 sequence (whole entry): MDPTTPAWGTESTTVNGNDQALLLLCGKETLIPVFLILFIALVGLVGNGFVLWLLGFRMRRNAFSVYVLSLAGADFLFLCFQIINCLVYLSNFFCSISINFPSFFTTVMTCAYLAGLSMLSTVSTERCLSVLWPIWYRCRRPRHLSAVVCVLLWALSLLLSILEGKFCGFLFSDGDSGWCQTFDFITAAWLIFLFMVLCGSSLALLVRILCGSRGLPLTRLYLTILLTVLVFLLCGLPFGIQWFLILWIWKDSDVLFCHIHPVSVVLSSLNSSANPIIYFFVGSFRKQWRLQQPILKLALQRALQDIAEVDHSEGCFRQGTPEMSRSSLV

[2] = species on record: Mus musculus; assay: Increase in number of nociceptive behaviors in mouse at 3 to 30 ug, it; format: functional; settings: dose 3-30 µg, DDE = dose-dependent effect
[3] = species on record: Mus musculus; assay: Increase in number of scratching behaviors in mouse at 3 to 300 ug, id; format: functional; settings: dose 3-300 µg, DDE = dose-dependent effect
[4] = biological target: T2, Mas-related G-protein coupled receptor member B2 (Mus musculus) (UniProt Q3KNA1); assay: Agonist activity at mouse Mrgprb2 expressed in HEK293 cells assessed as induction of G(o) dissociation by measuring luminescent decay at 32 uM by NanoBiT-G-protein dissociation assay; format: cell-based; settings: filed as agonist
T2 sequence (whole entry): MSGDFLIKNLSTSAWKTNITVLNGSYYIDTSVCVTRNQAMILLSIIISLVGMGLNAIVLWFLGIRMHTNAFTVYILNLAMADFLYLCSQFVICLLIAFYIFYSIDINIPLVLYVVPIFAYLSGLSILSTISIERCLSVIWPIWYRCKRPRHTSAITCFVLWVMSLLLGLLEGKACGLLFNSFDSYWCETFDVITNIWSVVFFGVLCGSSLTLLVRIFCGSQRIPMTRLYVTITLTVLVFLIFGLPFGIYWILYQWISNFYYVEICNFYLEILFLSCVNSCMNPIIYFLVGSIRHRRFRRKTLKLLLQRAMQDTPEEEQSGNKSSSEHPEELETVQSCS

[5] = species on record: Mus musculus; assay: Increase in number of nociceptive behaviors in mouse at 30 ug, it; format: functional; settings: dose 30.0 µg
[6] = biological target: T3, Mas-related G-protein coupled receptor member X2 (Homo sapiens, UniProt Q96LB1); assay: Agonistic activity at MRGPRX2 (unknown origin)
T3 sequence (Q96LB1 whole entry): T1 sequence (whole entry)

[7] = biological target: T1, Mas-related G-protein coupled receptor member X2 (Homo sapiens); assay: Agonist activity at MRGPRX2 (unknown origin) expressed in HEK293 cells assessed as induction of G(o) dissociation by measuring luminescent decay at 10 uM by NanoBiT-G-protein dissociation assay; format: functional, cell-based; settings: filed as agonist
[8] = biological target: T2, Mas-related G-protein coupled receptor member B2 (Mus musculus); assay: Agonist activity at mouse Mrgprb2 expressed in HEK293 cells assessed as induction of G(o) dissociation by measuring luminescent decay at 10 uM by NanoBiT-G-protein dissociation assay; format: cell-based; settings: filed as agonist

SMILES: CN1CC[C@]23Cc4nc5ccccc5cc4C[C@@]2(O)[C@H]1Cc1ccc(O)cc13
- Activity [1]: Active
- Activity [2]: Dde
- Activity [3]: Dde
- Activity [4]: Active
- Activity [5]: Active

SMILES: CN1CC[C@]2(c3cccc(O)c3)Cc3nc4ccccc4cc3C[C@@H]2C1
- Activity [1]: Active
- Activity [4]: Active
- EC50 [6]: 290 nM

SMILES: C[C@@H](O)[C@@H]1NC(=O)[C@H](CCCCN)NC(=O)[C@H](Cc2c[nH]c3ccccc23)NC(=O)[C@H](Cc2ccccc2)NC(=O)[C@H](Cc2ccccc2)NC(=O)[C@H](CC(N)=O)NC(=O)[C@H](CCCCN)NC(=O)[C@@H](NC(=O)[C@@H]2CCCN2)CSSC[C@@H](C(=O)N[C@@H](CCCCN)C(=O)O)NC(=O)[C@H](CO)NC(=O)[C@H](CO)NC(=O)[C@H](Cc2ccccc2)NC1=O (H-PCKNFFWKTFSSCK-OH; disulfide 2-13)
- Activity [7]: Active
- Activity [8]: Active
